EC50 data for 13 compounds are collected here from patent US9133158B2, “Bicyclic dihydroisoquinoline-1-one derivatives” (Hoffmann-La Roche Inc., priority 2011, dated 2015).

In one assay the target is T1, human CYP11B2 (Homo sapiens, UniProt P19099).
T1 construct: expressed in transfected cells
T1 sequence (P19099 25-503): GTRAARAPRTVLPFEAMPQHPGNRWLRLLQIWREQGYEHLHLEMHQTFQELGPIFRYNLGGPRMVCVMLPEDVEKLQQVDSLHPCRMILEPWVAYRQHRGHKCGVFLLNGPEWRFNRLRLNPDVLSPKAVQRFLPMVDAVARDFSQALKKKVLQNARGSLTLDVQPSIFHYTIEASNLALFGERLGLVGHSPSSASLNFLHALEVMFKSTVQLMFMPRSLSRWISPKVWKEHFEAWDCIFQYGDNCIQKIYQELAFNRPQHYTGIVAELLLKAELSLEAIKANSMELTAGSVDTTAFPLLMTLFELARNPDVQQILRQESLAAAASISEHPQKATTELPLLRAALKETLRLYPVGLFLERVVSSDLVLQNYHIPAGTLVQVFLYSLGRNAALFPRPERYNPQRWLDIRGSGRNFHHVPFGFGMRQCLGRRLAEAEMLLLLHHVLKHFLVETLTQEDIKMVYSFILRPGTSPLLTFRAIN
The experiment in a line: G-402 cellular enzyme assay, human CYP11B2 (aldosterone release, HTRF). The note with it: G-402 cells, 1 μM Deoxycorticosterone. Type of assay: cell-based. In outline:
(§1)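 Steroid output from supernatants, quantified by HTRF as cortisol for CYP11B1 or aldosterone for CYP11B2, gave EC50 values by least-squares 4-parameter MMF fitting against inhibitor concentration. Stably transfected G-402 cells carrying the human enzyme received 1 μM deoxycortisol or 1 μM deoxycorticosterone respectively, 16 h, DMEM/F12 with 2.5% charcoal-stripped FCS.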
Background: In TR-FRET formats the signal depends on donor and acceptor labels being close together.

In another assay the target is T2, human CYP11B1 (Homo sapiens, UniProt P15538).
T2 construct: expressed in transfected cells
T2 sequence (P15538 25-503): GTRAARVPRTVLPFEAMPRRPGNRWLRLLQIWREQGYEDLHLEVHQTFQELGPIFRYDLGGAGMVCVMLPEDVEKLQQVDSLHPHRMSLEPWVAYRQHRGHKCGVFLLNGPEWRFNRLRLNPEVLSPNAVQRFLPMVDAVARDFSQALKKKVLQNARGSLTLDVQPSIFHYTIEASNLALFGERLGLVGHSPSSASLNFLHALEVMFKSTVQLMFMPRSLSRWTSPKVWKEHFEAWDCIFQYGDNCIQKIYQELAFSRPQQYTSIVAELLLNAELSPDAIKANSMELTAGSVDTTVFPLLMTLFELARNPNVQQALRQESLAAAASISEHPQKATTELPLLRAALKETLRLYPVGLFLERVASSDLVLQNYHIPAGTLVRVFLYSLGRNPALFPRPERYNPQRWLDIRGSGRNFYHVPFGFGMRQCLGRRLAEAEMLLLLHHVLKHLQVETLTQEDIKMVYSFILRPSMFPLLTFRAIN
The experiment in a line: G-402 cellular enzyme assay, human CYP11B1 (cortisol release, HTRF). Particulars: G-402 cells, 1 μM Deoxycortisol. Type of assay: cell-based. In outline: as §1

Each structure is given as a SMILES string.

Usually EC50 stands for the concentration at which the effect is half-maximal. Read a low EC50 as a more potent agent. Consider `CCS(=O)(=O)Nc1cncc(N2CCc3cc(Cl)ccc3C2=O)c1` [Example 218, Ethanesulfonic acid [5-(6-chloro-1-oxo-3,4-dihydro-1H-isoquinolin-2-yl)-pyridin-3-yl]-amide], for which the concentration giving a half-maximal response (EC50) at human CYP11B2 turned out to be 1.55 µM; on human CYP11B1, 14.3 µM.
For `CC1(C)c2cc(Cl)ccc2C(=O)N1c1cncc(CN2CCCCS2(=O)=O)c1` [Example 415, 5-Chloro-2-[5-(1,1-dioxo-1λ6-[1,2]thiazinan-2-ylmethyl)-pyridin-3-yl]-3,3-dimethyl-2,3-dihydro-isoindol-1-one], in that order: 0.0055 µM and 0.484 µM.
In the case of `O=C1c2ccc(Cl)cc2CCN1c1cncc(N2CC[C@@H](O)C2)c1` [Example 137, 6-Chloro-2-[5-((R)-3-hydroxy-pyrrolidin-1-yl)-pyridin-3-yl]-3,4-dihydro-2H-isoquinolin-1-one], the figures for the EC50 on human CYP11B2 and at human CYP11B1 were 0.0101 µM and 0.108 µM, respectively.
`CS(=O)(=O)NCc1cncc(N2C(=O)c3ccc(F)cc3C23CC3)c1` [Example 404, N-{[5-(6′-Fluoro-3′-oxospiro [cyclopropane-1,1′-isoindol]-2′(3′H)-yl)pyridin-3-yl]methyl} methane-sulfonamide]: the EC50 on human CYP11B2 came to 0.298 µM; at human CYP11B1, 5.48 µM.
For `O=C1c2ccc(Cl)cc2CCN1c1cccnc1` [Example 1, 6-Chloro-2-pyridin-3-yl-3,4-dihydro-2H-isoquinolin-1-one], the EC50 at human CYP11B2 was determined as 0.086 µM; at human CYP11B1 it was 4.61 µM.
The matching figures for `CCS(=O)(=O)NCc1cncc(N2C(=O)c3ccc(Cl)cc3C2(C)C)c1` [Example 387, Ethanesulfonic acid [5-(6-chloro-1,1-dimethyl-3-oxo-1,3-dihydro-isoindol-2-yl)-pyridin-3-ylmethyl]-amide]: 0.0922 µM and 2.84 µM.
On to `Cc1nccn1Cc1cncc(N2CCc3cc(Cl)ccc3C2=O)c1` [Example 142, 6-Chloro-2-[5-(2-methyl-imidazol-1-ylmethyl)-pyridin-3-yl]-3,4-dihydro-2H-isoquinolin-1-one], for which the EC50 at human CYP11B2 came to 0.0802 µM; on human CYP11B1, 0.981 µM.
Regarding `N#Cc1cncc(N2CCc3cc(Cl)ccc3C2=O)c1` [Example 2, 5-(6-Chloro-1-oxo-3,4-dihydro-1H-isoquinolin-2-yl)-nicotinonitrile], the concentration for a half-maximal effect (EC50) at human CYP11B2 stood at 0.442 µM; on human CYP11B1 it was 7.39 µM.
On to `Cn1ncc2c(N3CCc4cc(Cl)ccc4C3=O)cncc21` [Example 27, 6-Chloro-2-(1-methyl-1H-pyrazolo[3,4-c]pyridin-4-yl)-3,4-dihydro-2H-isoquinolin-1-one], for which the EC50 on human CYP11B2 was determined as 0.0753 µM; on human CYP11B1 it was 0.731 µM.
Consider `CC(=O)NC1CCCc2c1cncc2N1C(=O)c2ccc(Cl)cc2C1(C)C` (single isomer, unassigned) [Example 466, N—[(S or R)-4-(6-Chloro-1,1-dimethyl-3-oxo-1,3-dihydro-isoindol-2-yl)-5,6,7,8-tetrahydro-isoquinolin-8-yl]-acetamide], for which the EC50 turned out to be 0.467 µM at human CYP11B2 and 21.3 µM at human CYP11B1.
Consider `O=C1c2ccc(Cl)cc2CCN1c1cncc(CN2CCCC(F)(F)C2)c1` [Example 172, 6-Chloro-2-[5-(3,3-difluoro-piperidin-1-ylmethyl)-pyridin-3-yl]-3,4-dihydro-2H-isoquinolin-1-one], for which the EC50 at human CYP11B2 turned out to be 0.0223 µM; at human CYP11B1, 0.144 µM.
In the case of `O=C1c2ccc(Cl)cc2CCN1c1cncc(NS(=O)(=O)c2ccccc2)c1` [Example 219, N-[5-(6-Chloro-1-oxo-3,4-dihydro-1H-isoquinolin-2-yl)-pyridin-3-yl]-benzenesulfonamide], the EC50 was 2.22 µM on human CYP11B2 and 17.6 µM at human CYP11B1.
Take `COC(C)c1cncc(N2CCc3cc(Cl)ccc3C2=O)c1` (centres unmarked) [Example 16, 6-Chloro-2-[5-(1-methoxy-ethyl)-pyridin-3-yl]-3,4-dihydro-2H-isoquinolin-1-one]: the EC50 at human CYP11B2 amounted to 0.0193 µM; at human CYP11B1 it was 0.126 µM.
